Results reported in patent US10101324B2, “Non-competitive immunoassays to detect small molecules using nanopeptamers” (priority 2012, dated 2018).

What was measured:
MoAb 14D7 = settings: molinate; same antibody MoAb 14D7; Rufo et al. 2004; cited from earlier work
[1] = system: anti-molinate monoclonal antibody (MoAb 14D7); experiment: Cross-reactivity of the pA-Nanopeptamer noncompetitive ELISA with related thiocarbamate pesticides; type: binding
MoAb 5.6 = settings: clomazone, Carlomagno et al. 2010; cited from earlier work

Row | SMILES | Cross reactivity, pA-Nanopeptamer assay [1] [%] | other results
1 | CCSC(=O)N1CCCCCC1 [Molinate] | – | IC50 of the competitive ELISA (MoAb 14D7): 0.069 ± 0.0005 mg/L
2 | CCCCN(CC)C(=O)SCCC [Pebulate] | 6 | –
3 | CC1(C)CON(Cc2ccccc2Cl)C1=O [clomazone] | – | IC50 of the competitive format (MoAb 5.6): 0.028 ± 0.0011 mg/L
4 | CCN(CC)C(=O)SCc1ccc(Cl)cc1 [thiobencarb] | 0 | –
